Laboratory results: patent US7074804B2, “CCI-779 Isomer C” (Wyeth, priority 2003, dated 2006)
In brackets after ≈: the same amount, converted by molar mass. Where two headings read alike, the source gives them in different places.

Key:
Candida parapsilosis = assay: Antifungal activity, microtiter broth dilution MIC; assay type: cell-based; conditions: RPMI 1640, 35° C., 24–48 h
Protocol: (§1) Antifungal activity for CCI-779 Isomer C was established by evaluating it against several strains of fungi. Briefly the following procedure was used to evaluate such activity. A 96 well microtiter plate was filled (50 μL/well) with RPMI 1640. The compounds to be evaluated were placed in appropriate wells and serial diluted in successive wells to provide several dilutions. The concentration ranged from […]. An adjusted inoculum of fungi (50 μL) was added to each well and plates were incubated at 35° C. for 24–48 h.

Aspergillus fumigatus = assay: Antifungal activity, microtiter broth dilution MIC; assay type: cell-based; conditions: Aspergillus fumigatus strain ATCC 26933, RPMI 1640, 35° C., 24–48 h
Protocol: as §1

Candida tropicalis = assay: Antifungal activity, microtiter broth dilution MIC; assay type: cell-based; conditions: RPMI 1640, 35° C., 24–48 h
Protocol: as §1

Candida lusitaniae = assay: Antifungal activity, microtiter broth dilution MIC; assay type: cell-based; conditions: Candida lusitaniae strain 94-3, RPMI 1640, 35° C., 24–48 h
Protocol: as §1

Candida rugosa = assay: Antifungal activity, microtiter broth dilution MIC; assay type: cell-based; conditions: Candida rugosa strain 94-10, RPMI 1640, 35° C., 24–48 h
Protocol: as §1

Candida pseudotropicalis = assay: Antifungal activity, microtiter broth dilution MIC; assay type: cell-based; conditions: Candida pseudotropicalis strain ATCC 28838, RPMI 1640, 35° C., 24–48 h
Protocol: as §1

Candida albicans = assay: Antifungal activity, microtiter broth dilution MIC; assay type: cell-based; conditions: RPMI 1640, 35° C., 24–48 h
Protocol: as §1

Candida krussii = assay: Antifungal activity, microtiter broth dilution MIC; assay type: cell-based; conditions: Candida krussii strain 94-2, RPMI 1640, 35° C., 24–48 h
Protocol: as §1

Aspergillus niger = assay: Antifungal activity, microtiter broth dilution MIC; assay type: cell-based; conditions: RPMI 1640, 35° C., 24–48 h
Protocol: as §1

[1] = Stability of CCI-779 Isomer C (solid form, aqueous suspension, formulation); assay type: physicochemical
[2] = system: histologically diverse tumor cells; conditions: cited from earlier work
human tumor xenografts = conditions: nude mice, diverse histological types; cited from earlier work
[3] = Candida parapsilosis strain 94-9
[4] = Candida tropicalis strain 94-13
[5] = Candida parapsilosis strain 94-8
[6] = Candida parapsilosis strain ATCC 90018
[7] = Candida tropicalis strain 94-14
[8] = Candida albicans strain ATCC 90028

Row | Compound | MIC (Candida parapsilosis; [3]) | MIC (Candida tropicalis; [4]) | MIC (Candida albicans; Candida albicans strain 1117) | MIC (Aspergillus niger; Aspergillus niger strain S399) | MIC (Candida parapsilosis; [5]) | MIC (Candida parapsilosis; [6]) | MIC (Aspergillus fumigatus) | MIC (Candida tropicalis; [7]) | MIC (Candida lusitaniae) | MIC (Candida rugosa) | MIC (Candida pseudotropicalis) | MIC (Candida albicans; Candida albicans strain 1063) | MIC (Candida albicans; [8]) | MIC (Candida krussii) | MIC (Aspergillus niger; Aspergillus niger strain S430) | other results
1 | CO[C@H]1C[C@@H]2CC[C@@H](C)C(=O)C(O)(O2)C(=O)N2CCCC[C@H]2C(=O)O[C@H]([C@H](C)C[C@@H]2CC[C@@H](OC(=O)C(C)(CO)CO)[C@H](OC)C2)CC(=O)[C@H](C)/C=C(\C)[C@@H](O)[C@@H](OC)C(=O)[C@H](C)C[C@H](C)/C=C/C=C/C=C/1C (single isomer, unassigned) [CCI-779 Isomer C] | 4 µg/mL (≈ 3.88 µM) | 4 µg/mL (≈ 3.88 µM) | 4 µg/mL (≈ 3.88 µM) | 32 µg/mL (≈ 31.1 µM) | – | – | – | – | – | – | – | – | – | – | – | MIC (Candida parapsilosis; Lodderomyces parapsilosis, ATCC90018, Candida parapsilosis strain ATCC 90018, read-out: MIC): 4 µg/mL (≈ 3.88 µM); MIC (Candida parapsilosis; Lodderomyces parapsilosis, Candida parapsilosis strain 94-8, read-out: MIC): 4 µg/mL (≈ 3.88 µM); MIC (Aspergillus fumigatus; ATCC26933, read-out: MIC): > 32 µg/mL; MIC (Candida tropicalis; Candida tropicalis strain 94-14, read-out: MIC): 4 µg/mL (≈ 3.88 µM); MIC (Candida lusitaniae; Clavispora lusitaniae, read-out: MIC): 8 µg/mL (≈ 7.76 µM); MIC (Candida rugosa; Diutina rugosa, read-out: MIC): 16 µg/mL (≈ 15.5 µM); MIC (Candida pseudotropicalis; Kluyveromyces marxianus, ATCC28838, read-out: MIC): 4 µg/mL (≈ 3.88 µM); MIC (Candida albicans; ATCC90028, Candida albicans strain ATCC 90028, read-out: MIC): 4 µg/mL (≈ 3.88 µM); MIC (Candida albicans; Candida albicans strain 1063, read-out: MIC): 4 µg/mL (≈ 3.88 µM); MIC (Candida krussii; read-out: MIC): 4 µg/mL (≈ 3.88 µM); MIC (Aspergillus niger; Aspergillus niger strain S430, read-out: MIC): 32 µg/mL (≈ 31.1 µM); stability with citric acid ([1]; citric acid at a concentration of less than 0.01% w/v in formulation): enhanced the stability; stability under storage conditions ([1]; formulated in solid form): stable under storage conditions for extended periods of time; stability ([1]; in an aqueous suspension): stable
2 | CO[C@H]1C[C@@H]2CC[C@@H](C)[C@@](O)(O2)C(=O)C(=O)N2CCCC[C@H]2C(=O)O[C@H]([C@H](C)C[C@@H]2CC[C@@H](OC(=O)C(C)(CO)CO)[C@H](OC)C2)CC(=O)[C@H](C)/C=C(\C)[C@@H](O)[C@@H](OC)C(=O)[C@H](C)C[C@H](C)/C=C/C=C/C=C/1C (single isomer, unassigned) [CCI-779, Rapamycin 42-ester with 3-hydroxy-2-(hydroxymethyl)-2-methylpropionic acid] | – | – | – | – | – | – | – | – | – | – | – | – | – | – | – | growth of tumor cells in vitro ([2]; CNS cancer, leukemia (T-cell), breast, prostate, melanoma lines most sensitive): inhibit the growth; cell cycle effect ([2]; in vitro): arrested cells in the G1 phase of the cell cycle; activity against human tumor xenografts (human tumor xenografts): has activity
3 | C[C@@H]1[C@H](O)[C@@H](C)/C=C/C=C/C=C/C=C/C=C/C=C/C=C/[C@H](O[C@@H]2O[C@H](C)[C@@H](O)[C@H](N)[C@@H]2O)C[C@@H]2O[C@](O)(C[C@@H](O)C[C@@H](O)[C@H](O)CC[C@@H](O)C[C@@H](O)CC(=O)O[C@H]1C)C[C@H](O)[C@H]2C(=O)O [Amphotericin B] | 0.12 µg/mL (≈ 0.13 µM) | ≦0.06 μg/mL | 0.12 µg/mL (≈ 0.13 µM) | 0.50 µg/mL (≈ 0.541 µM) | ≦0.06 μg/mL | ≦0.06 μg/mL | 0.25 µg/mL (≈ 0.271 µM) | ≦0.06 μg/mL | ≦0.06 μg/mL | 0.25 µg/mL (≈ 0.271 µM) | ≦0.06 μg/mL | ≦0.06 μg/mL | 0.12 µg/mL (≈ 0.13 µM) | 0.12 µg/mL (≈ 0.13 µM) | 0.25 µg/mL (≈ 0.271 µM) | –
4 | C[C@@H]1[C@H](O)[C@@H](C)/C=C/C=C/CC/C=C/C=C/C=C/C=C/C(O[C@H]2O[C@H](C)[C@@H](O)[C@H](N)[C@@H]2O)CC2O[C@](O)(CC(O)C(O)CCC(O)CC(O)CC(O)CC(=O)O[C@H]1C)CC(O)C2C(=O)O (stereo partly drawn) [Nystatin] | 1 µg/mL (≈ 1.08 µM) | 1 µg/mL (≈ 1.08 µM) | 1 µg/mL (≈ 1.08 µM) | 2 µg/mL (≈ 2.16 µM) | 2 µg/mL (≈ 2.16 µM) | 2 µg/mL (≈ 2.16 µM) | 2 µg/mL (≈ 2.16 µM) | 1 µg/mL (≈ 1.08 µM) | 1 µg/mL (≈ 1.08 µM) | 1 µg/mL (≈ 1.08 µM) | 1 µg/mL (≈ 1.08 µM) | 1 µg/mL (≈ 1.08 µM) | 1 µg/mL (≈ 1.08 µM) | 1 µg/mL (≈ 1.08 µM) | 1 µg/mL (≈ 1.08 µM) | –
